# In patent US9469650B2, “Melampomagnolide B derivatives” (BOARD OF TRUSTEES OF THE UNIVERSITY OF ARKANSAS, priority 2013, dated 2016):
# How the values were obtained:
# NCI/ADR-RES = assay: panel of 60 human tumor cell lines, growth inhibition (Ovarian Cancer)
# PC-3 = assay: panel of 60 human tumor cell lines, growth inhibition (Prostate Cancer); settings: PC-3
# HOP-62 = assay: panel of 60 human tumor cell lines, growth inhibition (Non-Small Cell Lung Cancer); settings: HOP-62
# KM12 = assay: panel of 60 human tumor cell lines, growth inhibition (Colon Cancer); settings: KM12
# DU-145 = assay: panel of 60 human tumor cell lines, growth inhibition (Prostate Cancer); settings: DU-145
# MDA-MB-231/ATCC = assay: panel of 60 human tumor cell lines, growth inhibition (Breast Cancer); settings: MDA-MB-231/ATCC
# SF-539 = assay: panel of 60 human tumor cell lines, growth inhibition (CNS Cancer); settings: SF-539
# SK-MEL-2 = assay: panel of 60 human tumor cell lines, growth inhibition (Melanoma); settings: SK-MEL-2
# U251 = assay: panel of 60 human tumor cell lines, growth inhibition (CNS Cancer); settings: U251
structure (smiles),measurement,setting,value
C=C1C(=O)O[C@H]2[C@H]1CC/C(COC(=O)N1CCN(C)CC1)=C\CC[C@@]1(C)O[C@@H]21 [JVM 2-44],GI50,NCI/ADR-RES,24.6 µM
same,TGI,NCI/ADR-RES,>1.00E−4
same,Mean Optical Densities,NCI/ADR-RES; Log10 Concentration −4.0,0.606
same,Percent Growth,NCI/ADR-RES; Log10 Concentration −4.0,1%
same,Mean Optical Densities,NCI/ADR-RES; Log10 Concentration −5.0,1.819
same,Percent Growth,NCI/ADR-RES; Log10 Concentration −5.0,82%
same,Mean Optical Densities,NCI/ADR-RES; Log10 Concentration −6.0,2.094
same,Percent Growth,NCI/ADR-RES; Log10 Concentration −6.0,100%
same,Mean Optical Densities,NCI/ADR-RES; Log10 Concentration −7.0,2.049
same,Percent Growth,NCI/ADR-RES; Log10 Concentration −7.0,97%
same,Mean Optical Densities,NCI/ADR-RES; Log10 Concentration −8.0,2.060
same,Percent Growth,NCI/ADR-RES; Log10 Concentration −8.0,98%
same,GI50,PC-3,21.8 µM
same,TGI,PC-3,4.89E−5
same,Mean Optical Densities,PC-3; Log10 Concentration −4.0,0.340
same,Percent Growth,PC-3; Log10 Concentration −4.0,−44%
same,Mean Optical Densities,PC-3; Log10 Concentration −5.0,1.854
same,Percent Growth,PC-3; Log10 Concentration −5.0,98%
same,Mean Optical Densities,PC-3; Log10 Concentration −6.0,1.917
same,Percent Growth,PC-3; Log10 Concentration −6.0,103%
same,Mean Optical Densities,PC-3; Log10 Concentration −7.0,1.899
same,Percent Growth,PC-3; Log10 Concentration −7.0,102%
same,Mean Optical Densities,PC-3; Log10 Concentration −8.0,1.916
same,Percent Growth,PC-3; Log10 Concentration −8.0,103%
same,GI50,HOP-62,27.3 µM
same,TGI,HOP-62,>1.00E−4
same,Mean Optical Densities,HOP-62; Log10 Concentration −4.0,0.936
same,Percent Growth,HOP-62; Log10 Concentration −4.0,7%
same,Mean Optical Densities,HOP-62; Log10 Concentration −5.0,2.007
same,Percent Growth,HOP-62; Log10 Concentration −5.0,83%
same,Mean Optical Densities,HOP-62; Log10 Concentration −6.0,2.174
same,Percent Growth,HOP-62; Log10 Concentration −6.0,95%
same,Mean Optical Densities,HOP-62; Log10 Concentration −7.0,2.046
same,Percent Growth,HOP-62; Log10 Concentration −7.0,86%
same,Mean Optical Densities,HOP-62; Log10 Concentration −8.0,2.193
same,Percent Growth,HOP-62; Log10 Concentration −8.0,96%
same,GI50,KM12,14.2 µM
same,TGI,KM12,3.13E−5
same,Mean Optical Densities,KM12; Log10 Concentration −4.0,0.105
same,Percent Growth,KM12; Log10 Concentration −4.0,−74%
same,Mean Optical Densities,KM12; Log10 Concentration −5.0,1.680
same,Percent Growth,KM12; Log10 Concentration −5.0,72%
same,Mean Optical Densities,KM12; Log10 Concentration −6.0,2.184
same,Percent Growth,KM12; Log10 Concentration −6.0,101%
same,Mean Optical Densities,KM12; Log10 Concentration −7.0,2.151
same,Percent Growth,KM12; Log10 Concentration −7.0,99%
same,Mean Optical Densities,KM12; Log10 Concentration −8.0,2.117
same,Percent Growth,KM12; Log10 Concentration −8.0,97%
same,GI50,DU-145,3.98 µM
same,TGI,DU-145,1.44E−5
same,Mean Optical Densities,DU-145; Log10 Concentration −4.0,0.835
same,Percent Growth,DU-145; Log10 Concentration −4.0,−93%
same,Mean Optical Densities,DU-145; Log10 Concentration −5.0,0.750
same,Percent Growth,DU-145; Log10 Concentration −5.0,17%
same,Mean Optical Densities,DU-145; Log10 Concentration −6.0,1.844
same,Percent Growth,DU-145; Log10 Concentration −6.0,99%
same,Mean Optical Densities,DU-145; Log10 Concentration −7.0,1.845
same,Percent Growth,DU-145; Log10 Concentration −7.0,99%
same,Mean Optical Densities,DU-145; Log10 Concentration −8.0,1.839
same,Percent Growth,DU-145; Log10 Concentration −8.0,99%
same,GI50,MDA-MB-231/ATCC,10.4 µM
same,TGI,MDA-MB-231/ATCC,2.64E−5
same,Mean Optical Densities,MDA-MB-231/ATCC; Log10 Concentration −4.0,0.200
same,Percent Growth,MDA-MB-231/ATCC; Log10 Concentration −4.0,−72%
same,Mean Optical Densities,MDA-MB-231/ATCC; Log10 Concentration −5.0,1.153
same,Percent Growth,MDA-MB-231/ATCC; Log10 Concentration −5.0,52%
same,Mean Optical Densities,MDA-MB-231/ATCC; Log10 Concentration −6.0,1.525
same,Percent Growth,MDA-MB-231/ATCC; Log10 Concentration −6.0,95%
same,Mean Optical Densities,MDA-MB-231/ATCC; Log10 Concentration −7.0,1.568
same,Percent Growth,MDA-MB-231/ATCC; Log10 Concentration −7.0,106%
same,Mean Optical Densities,MDA-MB-231/ATCC; Log10 Concentration −8.0,1.619
same,Percent Growth,MDA-MB-231/ATCC; Log10 Concentration −8.0,106%
same,GI50,SF-539,5.01 µM
same,TGI,SF-539,1.99E−5
same,Mean Optical Densities,SF-539; Log10 Concentration −4.0,0.121
same,Percent Growth,SF-539; Log10 Concentration −4.0,−79%
same,Mean Optical Densities,SF-539; Log10 Concentration −5.0,1.049
same,Percent Growth,SF-539; Log10 Concentration −5.0,34%
same,Mean Optical Densities,SF-539; Log10 Concentration −6.0,1.761
same,Percent Growth,SF-539; Log10 Concentration −6.0,87%
same,Mean Optical Densities,SF-539; Log10 Concentration −7.0,1.799
same,Percent Growth,SF-539; Log10 Concentration −7.0,89%
same,Mean Optical Densities,SF-539; Log10 Concentration −8.0,1.915
same,Percent Growth,SF-539; Log10 Concentration −8.0,97%
same,GI50,SK-MEL-2,17.2 µM
same,TGI,SK-MEL-2,3.60E−5
same,Mean Optical Densities,SK-MEL-2; Log10 Concentration −4.0,0.382
same,Percent Growth,SK-MEL-2; Log10 Concentration −4.0,−69%
same,Mean Optical Densities,SK-MEL-2; Log10 Concentration −5.0,1.984
same,Percent Growth,SK-MEL-2; Log10 Concentration −5.0,87%
same,Mean Optical Densities,SK-MEL-2; Log10 Concentration −6.0,2.148
same,Percent Growth,SK-MEL-2; Log10 Concentration −6.0,106%
same,Mean Optical Densities,SK-MEL-2; Log10 Concentration −7.0,2.037
same,Percent Growth,SK-MEL-2; Log10 Concentration −7.0,93%
same,Mean Optical Densities,SK-MEL-2; Log10 Concentration −8.0,2.082
same,Percent Growth,SK-MEL-2; Log10 Concentration −8.0,98%
same,GI50,U251,18.7 µM
same,TGI,U251,4.08E−5
same,Mean Optical Densities,U251; Log10 Concentration −4.0,0.206
same,Percent Growth,U251; Log10 Concentration −4.0,−58%
same,Mean Optical Densities,U251; Log10 Concentration −5.0,1.893
same,Percent Growth,U251; Log10 Concentration −5.0,90%
same,Mean Optical Densities,U251; Log10 Concentration −6.0,2.002
same,Percent Growth,U251; Log10 Concentration −6.0,97%
same,Mean Optical Densities,U251; Log10 Concentration −7.0,2.003
same,Percent Growth,U251; Log10 Concentration −7.0,97%
same,Mean Optical Densities,U251; Log10 Concentration −8.0,2.013
same,Percent Growth,U251; Log10 Concentration −8.0,98%
